US12398121B2 (Nuvation Bio Inc., priority 2018, dated 2025)
pIC50: −log10 of the molar value.

Columns and labels:
Format in all cases: cell-based
Human AR = target: T1, Human AR (Homo sapiens, UniProt P10275); assay: AR transactivation (antagonist mode, GRE-LUC luciferase in HEK-293 cells); settings: in combination with 0.1 nM R1881, read-out: AR Ant. IC50
T1 construct: expressed in transfected cells; host or cells: HEK-293
T1 sequence (P10275 1-920): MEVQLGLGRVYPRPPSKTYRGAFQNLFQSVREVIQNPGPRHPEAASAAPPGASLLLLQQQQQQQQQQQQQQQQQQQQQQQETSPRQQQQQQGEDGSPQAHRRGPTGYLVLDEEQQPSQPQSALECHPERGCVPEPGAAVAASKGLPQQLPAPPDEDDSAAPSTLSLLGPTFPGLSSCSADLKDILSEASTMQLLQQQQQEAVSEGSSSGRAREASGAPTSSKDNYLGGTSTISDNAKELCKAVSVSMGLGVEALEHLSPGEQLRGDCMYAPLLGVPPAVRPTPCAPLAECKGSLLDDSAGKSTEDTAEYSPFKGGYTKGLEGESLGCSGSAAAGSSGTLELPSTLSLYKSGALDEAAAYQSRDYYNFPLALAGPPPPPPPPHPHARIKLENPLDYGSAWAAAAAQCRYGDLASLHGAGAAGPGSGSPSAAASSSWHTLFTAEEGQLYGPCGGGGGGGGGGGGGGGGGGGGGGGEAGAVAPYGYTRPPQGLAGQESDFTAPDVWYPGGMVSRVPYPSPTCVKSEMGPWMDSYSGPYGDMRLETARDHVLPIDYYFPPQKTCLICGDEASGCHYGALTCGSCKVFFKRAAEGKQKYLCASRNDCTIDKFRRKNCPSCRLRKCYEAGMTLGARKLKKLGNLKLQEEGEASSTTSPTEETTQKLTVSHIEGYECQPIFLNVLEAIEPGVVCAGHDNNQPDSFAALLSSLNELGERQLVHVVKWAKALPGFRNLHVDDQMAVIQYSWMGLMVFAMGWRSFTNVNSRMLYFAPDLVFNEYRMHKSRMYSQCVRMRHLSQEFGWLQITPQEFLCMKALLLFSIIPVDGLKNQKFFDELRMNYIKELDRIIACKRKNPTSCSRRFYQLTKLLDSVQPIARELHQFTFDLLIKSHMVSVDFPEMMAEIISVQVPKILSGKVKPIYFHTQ
Protocol: (§1) IC50 values were calculated and graphed using the model “log(inhibitor) vs. response—Variable slope” included in GraphPad Prism 5 (San Diego, CA). The Ki values were further calculated using the equation below where [L] was the radioligand concentration (1 nM) using in this study. Kd value was 0.332 nM. Ki=IC50/(1+[L]/Kd) c. AR transactivation: Human AR cloned into a CMV vector backbone was used for the transactivation study. HEK-293 cells were plated at 80,000 cells per well of a 24 well plate in DME+5% csFBS. Twenty four hours later, the cells were transfected using Lipofectamine (Invitrogen, Carlsbad, CA) with 0.25 μg GRE-LUC, 0.01 μg CMV-LUC (renilla luciferase) and 25 ng of the AR in OPTIMEM medium. The cells were treated 24 hrs after transfection with various ligands (10^−12 to 10^−5 M final concentrations) and luciferase assay were performed 48 hours after transfection. Firefly values were normalized to renilla luciferase values and the values were represented as relative light units (RLU). Agonist and antagonist assays for the test article were performed in the absence and in the combination with 0.1 nM R1881, respectively. Data were represented as EC50 (for agonists) and IC50 (for antagonists) obtained from four parameter logistics curve. Cell culture and proliferation assays: LNCaP, PC-3, 22RV1, MCF-7, HT-29, and HCT-116 cells were procured from American Type Culture Collection (ATCC). Cells were cultured in medium recommended by the ATCC. Cell culture medium was obtained from Fisher scientific (Waltham, MA) and serum was obtained from Hyclone (San Angelo, TX).

LNCaP cells = assay: Cell proliferation assay (CellTiter Glo), LNCaP; settings: Homo sapiens, 168 h, read-out: LNCaP IC50
Protocol: as §1
Cells were plated at varying density in the respective growth medium in 96 well plates. 24 hr later, cells were treated, in triplicate or quadruplicate, with test articles prepared in a range of concentrations by series dilution of DMSO stock solutions in growth medium and incubated for three to seven days. The number of viable 22RV1 and HT-29 cells was measured using CellTiter Glo assay (CTG, Promega, Madison, WI) after three days of treatment. The other types of cancer cells were re-treated at three or four days and the number of viable cells was measured using CTG assay after a total treatment time of six or seven days. Cell viability data were plotted using GraphPad Prism (GraphPad Software, Inc., San Diego, CA). In addition, a nonlinear regression model with a sigmoidal dose response and variable slope within GraphPad Prism was used to calculate the IC50 value of individual test articles. Additional cell proliferation assays: Other cancer cell lines are tested in a cell proliferation assay. For example, SK-OV-3 or OVCAR3 ovarian cancer cells are tested. Cells are cultured in medium recommended by the supplier (e.g., ATCC or JCRB Cell Bank), at 37° C. in a 5% CO2 environment. For the proliferation assay, cells are plated in the growth medium in 96 well plates. Seeding density is adjusted according to the cell type. 24 hr later, cells are treated, in triplicate or quadruplicate, with test articles prepared in a range of concentrations by series dilution of DMSO stock solutions in growth medium, and typically incubated for three to seven days, with test article-containing medium replaced after three or four days. The number of viable cells is measured using CellTiter Glo assay (CTG, Promega, Madison, WI) or similar. Cell viability data are plotted using GraphPad Prism (GraphPad Software, Inc., San Diego, CA). […]

PC-3 cells = assay: Cell proliferation assay (CellTiter Glo), PC-3; settings: Homo sapiens, PC-3, 168 h, read-out: PC-3 IC50
Protocol: as §1
(§2) Cells were plated at varying density in the respective growth medium in 96 well plates. 24 hr later, cells were treated, in triplicate or quadruplicate, with test articles prepared in a range of concentrations by series dilution of DMSO stock solutions in growth medium and incubated for three to seven days. The number of viable 22RV1 and HT-29 cells was measured using CellTiter Glo assay (CTG, Promega, Madison, WI) after three days of treatment. The other types of cancer cells were re-treated at three or four days and the number of viable cells was measured using CTG assay after a total treatment time of six or seven days. Cell viability data were plotted using GraphPad Prism (GraphPad Software, Inc., San Diego, CA). In addition, a nonlinear regression model with a sigmoidal dose response and variable slope within GraphPad Prism was used to calculate the IC50 value of individual test articles. Additional cell proliferation assays: Other cancer cell lines are tested in a cell proliferation assay. For example, SK-OV-3 or OVCAR3 ovarian cancer cells are tested. […] The number of viable cells is measured using CellTiter Glo assay (CTG, Promega, Madison, WI) or similar. […]

HCT-116 cells = assay: Cell proliferation assay (CellTiter Glo), HCT-116; settings: Homo sapiens, HCT-116, 168 h, read-out: HCT-116 IC50
Protocol: as §1, §2

| Structure (SMILES) | pIC50 (Human AR) | pIC50 (LNCaP cells) | pIC50 (PC-3 cells) | pIC50 (HCT-116 cells) |
| --- | --- | --- | --- | --- |
| C[C@](O)(CS(=O)(=O)c1ccc(NCCCCCC(=O)N2CCN(C(=O)c3cc(Cc4n[nH]c(=O)c5ccccc45)ccc3F)CC2)cc1)C(=O)Nc1ccc(C#N)c(C(F)(F)F)c1 [Compound 1.68, (R)-N-(4-cyano-3-(trifluoromethyl)phenyl)-3-(4-(6-(4-(2-fluoro-5-((4-oxo-3,4-dihydrophthalazin-1-yl)methyl)benzoyl)piperazin-1-yl)-6-oxohexylamino)phenylsulfonyl)-2-hydroxy-2-methylpropanamide] | 5.48 | – | – | – |
| CC1(C)C(=O)N(c2ccc(C#N)c(C(F)(F)F)c2)C(=S)N1c1ccc(C(=O)NCCCCCCNCc2ccc(-c3[nH]c4cc(F)cc5c4c3CCNC5=O)cc2)c(F)c1 [Compound 1.5, 4-(3-(4-cyano-3-(trifluoromethyl)phenyl)-5,5-dimethyl-4-oxo-2-thioxoimidazolidin-1-yl)-2-fluoro-N-(6-((4-(8-fluoro-1-oxo-2,3,4,6-tetrahydro-1H-azepino[5,4,3-cd]indol-5-yl)benzyl)amino)hexyl)benzamide] | 6.12 | – | – | – |
| CC1(C)C(=O)N(c2ccc(C#N)c(C(F)(F)F)c2)C(=S)N1c1ccc(C(=O)NCCCCCC(=O)N2CCN(C(=O)c3cc(Cc4n[nH]c(=O)c5ccccc45)ccc3F)CC2)c(F)c1 [Compound 1.1, 4-(3-(4-cyano-3-(trifluoromethyl)phenyl)-5,5-dimethyl-4-oxo-2-thioxoimidazolidin-1-yl)-2-fluoro-N-(6-(4-(2-fluoro-5-((4-oxo-3,4-dihydrophthalazin-1-yl)methyl)benzoyl)piperazin-1-yl)-6-oxohexyl)benzamide] | 7.48 | 6.23 | 7.30 | 6.51 |
| C[C@]12CCC(=O)C[C@@H]1CC[C@@H]1[C@@H]2CC[C@]2(C)[C@@H](OCCCCCC(=O)N3CCN(C(=O)c4cc(Cc5n[nH]c(=O)c6ccccc56)ccc4F)CC3)CC[C@@H]12 [Compound 1.2, 4-(3-(4-(6-(((5S,8R,9S,10S,13S,14S,17S)-10,13-dimethyl-3-oxohexadecahydro-1H-cyclopenta[a]phenanthren-17-yl)oxy)hexanoyl)piperazine-1-carbonyl)-4-fluorobenzyl)phthalazin-1(2H)-one] | – | 6.10 | 6.62 | 6.96 |
